Data reported in patent US8536354B2, “Steroidal ligands and their use in gene switch modulation” (Intrexon Corporation, priority 2008, dated 2013).
Like-named read-outs stand apart in the source and are kept apart here.

Key:
[1] = molecular target: T1, wild-type Aedes aegypti EcR (AaEcR-DEF) (Aedes aegypti, UniProt P49880); test: Two-hybrid gene switch assay, AaEcR-DEF in NIH3T3 cells; conditions: AaEcR; for rel max FI (20E), AA: max fold induction at any concentration relative to 20E; for rel max FI (PoA), AA: max fold induction at any concentration relative to PoA; for EC50: EC50 (μM), AA, NIH3T3 cells, luciferase, 48 h, ligand 0.01-33 μM
T1 sequence (P49880 405-776 limits assumed): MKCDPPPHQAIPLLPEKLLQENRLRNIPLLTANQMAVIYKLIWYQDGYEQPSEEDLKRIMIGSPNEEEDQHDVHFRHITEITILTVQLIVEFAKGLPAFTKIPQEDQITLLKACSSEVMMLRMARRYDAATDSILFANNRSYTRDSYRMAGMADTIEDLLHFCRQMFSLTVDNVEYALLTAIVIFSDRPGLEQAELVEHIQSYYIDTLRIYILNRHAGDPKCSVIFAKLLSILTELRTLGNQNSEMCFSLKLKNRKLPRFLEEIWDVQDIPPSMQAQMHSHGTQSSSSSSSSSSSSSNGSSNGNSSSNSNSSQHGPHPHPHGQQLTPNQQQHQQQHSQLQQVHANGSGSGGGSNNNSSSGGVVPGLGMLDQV

[2] = molecular target: T2, Amblyomma americanum EcR (AmaEcR-DEF) (Amblyomma americanum, UniProt O44338); test: Two-hybrid gene switch assay, AmaEcR-DEF in NIH3T3 cells; conditions: for Emax: NIH3T3, 48 h
T2 sequence (O44338 291-570): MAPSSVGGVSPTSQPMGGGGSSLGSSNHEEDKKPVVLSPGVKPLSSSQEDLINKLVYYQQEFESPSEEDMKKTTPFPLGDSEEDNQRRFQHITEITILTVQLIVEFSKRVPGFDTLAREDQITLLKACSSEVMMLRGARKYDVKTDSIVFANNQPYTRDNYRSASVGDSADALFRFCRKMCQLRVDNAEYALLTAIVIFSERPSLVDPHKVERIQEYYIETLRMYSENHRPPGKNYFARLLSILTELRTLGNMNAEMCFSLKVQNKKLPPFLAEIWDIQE
T2 sequence (P28702 299-449 partner): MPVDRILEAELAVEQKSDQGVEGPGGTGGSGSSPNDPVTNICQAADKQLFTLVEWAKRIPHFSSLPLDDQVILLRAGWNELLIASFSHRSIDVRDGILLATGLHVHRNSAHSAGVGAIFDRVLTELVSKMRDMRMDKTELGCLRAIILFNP

[3] = molecular target: T3, Manduca sexta EcR (MsEcR) (Manduca sexta, UniProt P49883); test: Two-hybrid gene switch assay, MsEcR-CDEF in NIH3T3 cells; conditions: for rel max FI (20E), MS / rel max FI (PoA), MS: MsEcR; for rel max FI (20E), MS: max fold induction at any concentration relative to 20E; for rel max FI (PoA), MS: max fold induction at any concentration relative to PoA
T3 sequence (P49883 293-531 limits assumed): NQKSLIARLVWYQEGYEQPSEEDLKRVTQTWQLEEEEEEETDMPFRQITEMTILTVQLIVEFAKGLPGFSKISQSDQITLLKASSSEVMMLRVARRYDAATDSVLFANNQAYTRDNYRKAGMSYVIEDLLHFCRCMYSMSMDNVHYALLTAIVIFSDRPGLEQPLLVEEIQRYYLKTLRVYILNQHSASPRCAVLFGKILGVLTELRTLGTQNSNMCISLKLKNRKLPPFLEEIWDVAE

[4] = molecular target: T4, wild-type Choristoneura fumiferana EcR (CfEcR-DEF) (Choristoneura fumiferana, UniProt O77255); test: Two-hybrid gene switch assay, wild-type CfEcR-DEF (GAL4-EcR / VP16-RXR-USP chimera, luciferase) in NIH3T3 cells; conditions: for Emax: NIH3T3, 48 h
T4 sequence (O77255 219-541): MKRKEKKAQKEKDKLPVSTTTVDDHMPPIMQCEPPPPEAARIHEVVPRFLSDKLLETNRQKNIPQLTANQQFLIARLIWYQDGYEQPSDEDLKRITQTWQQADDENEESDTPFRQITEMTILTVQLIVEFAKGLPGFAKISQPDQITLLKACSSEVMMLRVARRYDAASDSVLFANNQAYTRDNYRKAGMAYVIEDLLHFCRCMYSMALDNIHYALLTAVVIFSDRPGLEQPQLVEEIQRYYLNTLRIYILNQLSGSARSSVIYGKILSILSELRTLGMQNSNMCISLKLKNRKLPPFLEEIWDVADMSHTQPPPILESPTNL
T4 sequence (P28702 299-449 partner): T2 sequence (P28702 299-449 partner)

[5] = molecular target: T5, TmEcR (GAL4-EcR DEF with VP16-RXR partner) (Tenebrio molitor, UniProt O02035); test: Two-hybrid gene switch assay, luciferase reporter, TmEcR, mouse NIH3T3 cells; conditions: EC50, FIG. 14A/14B, GAL4-EcR(DEF)
T5 sequence (O02035 194-491): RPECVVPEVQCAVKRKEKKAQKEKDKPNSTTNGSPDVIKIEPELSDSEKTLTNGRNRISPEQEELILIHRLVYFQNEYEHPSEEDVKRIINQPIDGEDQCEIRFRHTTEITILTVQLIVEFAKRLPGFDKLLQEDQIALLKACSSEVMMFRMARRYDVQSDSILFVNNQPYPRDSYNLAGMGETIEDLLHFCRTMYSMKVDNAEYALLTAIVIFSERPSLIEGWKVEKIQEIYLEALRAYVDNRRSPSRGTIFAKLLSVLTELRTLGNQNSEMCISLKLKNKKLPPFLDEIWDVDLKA
T5 sequence (P28704 1-520 partner): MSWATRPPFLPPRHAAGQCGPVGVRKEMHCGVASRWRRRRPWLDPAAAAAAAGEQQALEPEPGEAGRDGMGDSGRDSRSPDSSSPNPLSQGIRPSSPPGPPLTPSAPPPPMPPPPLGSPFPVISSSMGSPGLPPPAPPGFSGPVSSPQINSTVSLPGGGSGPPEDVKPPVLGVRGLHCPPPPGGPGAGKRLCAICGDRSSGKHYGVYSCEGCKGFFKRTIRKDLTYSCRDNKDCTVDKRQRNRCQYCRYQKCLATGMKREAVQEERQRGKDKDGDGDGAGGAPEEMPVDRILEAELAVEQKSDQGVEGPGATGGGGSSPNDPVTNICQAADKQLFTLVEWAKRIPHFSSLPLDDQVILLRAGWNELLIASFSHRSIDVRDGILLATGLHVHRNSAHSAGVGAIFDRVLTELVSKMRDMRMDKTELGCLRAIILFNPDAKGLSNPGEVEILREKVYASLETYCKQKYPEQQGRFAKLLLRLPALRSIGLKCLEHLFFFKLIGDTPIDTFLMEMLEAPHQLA

[6] = molecular target: wild-type Aedes aegypti EcR (AaEcR; GAL4-EcR DEF with VP16-RXR-USP chimera) (Aedes aegypti, UniProt P49880); test: Two-hybrid gene switch assay, luciferase reporter, wild-type AaEcR, mouse NIH3T3 cells; assay type: cell-based; conditions: GAL4-EcR(DEF) with VP16-RXR-USP chimera
Chain of wild-type Aedes aegypti EcR (AaEcR; GAL4-EcR DEF with VP16-RXR-USP chimera) (P49880 with tags, fused parts or gaps limits assumed, change not shown): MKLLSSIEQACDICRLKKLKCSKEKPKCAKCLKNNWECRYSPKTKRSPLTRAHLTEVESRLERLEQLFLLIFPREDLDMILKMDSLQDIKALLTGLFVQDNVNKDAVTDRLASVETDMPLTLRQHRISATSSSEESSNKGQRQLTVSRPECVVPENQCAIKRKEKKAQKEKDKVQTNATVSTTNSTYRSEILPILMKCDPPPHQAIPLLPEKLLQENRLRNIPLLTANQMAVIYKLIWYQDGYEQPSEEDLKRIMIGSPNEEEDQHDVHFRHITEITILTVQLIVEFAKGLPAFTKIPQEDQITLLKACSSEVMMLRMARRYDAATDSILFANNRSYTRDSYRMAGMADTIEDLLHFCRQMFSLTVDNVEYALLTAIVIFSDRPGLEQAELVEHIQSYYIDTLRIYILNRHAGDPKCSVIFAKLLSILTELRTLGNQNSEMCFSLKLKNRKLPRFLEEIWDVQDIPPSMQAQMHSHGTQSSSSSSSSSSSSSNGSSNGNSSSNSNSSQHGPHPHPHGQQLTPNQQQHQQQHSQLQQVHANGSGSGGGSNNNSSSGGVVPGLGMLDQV

[7] = read-out: rel max FI (20E), AMA
[8] = read-out: rel max FI (PoA), AMA

CO[C@H]1C[C@@]2(C)[C@@H](C[C@H]1O)C(=O)C=C1[C@@H]2CC[C@]2(C)[C@@H]([C@@](C)(O)[C@@H](CCC(C)(C)O)OC)CC[C@@]12O [20E-2,22-dimethyl ether]
rel max FI (20E), AA [1]: 2.34
rel max FI (PoA), AA [1]: 0.80
EC50 [1]: ~8 µM
EC50 [2]: ~8 µM
Emax [2, 7]: 94%
Emax [2, 8]: 72%
EC50 [3]: ~20 µM
rel max FI (20E), MS [3]: 0.15
rel max FI (PoA), MS [3]: 0.09
EC50 [4]: > 33 µM
Emax ([4]; read-out: rel max FI (20E), CF): 63%
Emax ([4]; read-out: rel max FI (PoA), CF): 0%

CO[C@@H]1C[C@H]2C(=O)C=C3[C@H](CC[C@]4(C)[C@@H]([C@@](C)(O)[C@H](O)CCC(C)(C)O)CC[C@@]34O)[C@@]2(C)C[C@@H]1O [20E-3-methyl ether]
rel max FI (20E), AA [1]: 1.75
rel max FI (PoA), AA [1]: 0.60
EC50 [1]: ~10 µM
EC50 [2]: ~3.3 µM
Emax [2, 7]: 91%
Emax [2, 8]: 70%
EC50 [3]: ~10 µM
rel max FI (20E), MS [3]: 1.15
rel max FI (PoA), MS [3]: 0.73
EC50 [4]: > 33 µM
Emax ([4]; read-out: rel max FI (20E), CF): 115%
Emax ([4]; read-out: rel max FI (PoA), CF): 1%

CO[C@H](CCC(C)(C)O)[C@](C)(O)C1CC[C@@]2(O)C3=CC(=O)C4C[C@@H](O)[C@@H](O)CC4(C)C3CCC12C (some centres unmarked) [20E-22-methyl ether]
rel max FI (20E), AA [1]: 2.52
rel max FI (PoA), AA [1]: 0.86
EC50 [1]: 1.04 µM
EC50 [2]: ~1 µM
Emax [2, 7]: 108%
Emax [2, 8]: 83%
EC50 [3]: ~10 µM
rel max FI (20E), MS [3]: 1.29
rel max FI (PoA), MS [3]: 0.81
EC50 [4]: > 33 µM
Emax ([4]; read-out: rel max FI (20E), CF): 7%
Emax ([4]; read-out: rel max FI (PoA), CF): 0%

CO[C@@H]1C[C@H]2C(=O)C=C3[C@H](CC[C@]4(C)[C@@H]([C@@](C)(O)[C@@H](CCC(C)(C)O)OC)CC[C@@]34O)[C@@]2(C)C[C@@H]1O [20E-3,22-dimethyl ether]
rel max FI (20E), AA [1]: 2.32
rel max FI (PoA), AA [1]: 0.79
EC50 [1]: 7.15 µM
EC50 [2]: ~2 µM
Emax [2, 7]: 104%
Emax [2, 8]: 80%
EC50 [3]: ~10 µM
rel max FI (20E), MS [3]: 0.82
rel max FI (PoA), MS [3]: 0.52
EC50 [4]: > 33 µM
Emax ([4]; read-out: rel max FI (20E), CF): 46%
Emax ([4]; read-out: rel max FI (PoA), CF): 0%

CC(C)(O)CC[C@@H](O)[C@](C)(O)[C@H]1CC[C@@]2(O)C3=C[C@H](O)[C@@H]4C[C@@H](O)[C@@H](O)C[C@]4(C)[C@H]3CC[C@]12C [Compound 6a-hydroxy-20-hydroxyecdysone]
EC50 [5]: > 33 µM
EC50 ([6]; FIG. 14A/14B, read-out: EC50): ~12 µM

CC(C)(O)CC[C@@H](O)[C@](C)(O)[C@H]1CC[C@@]2(O)C3=CC(=O)[C@@H]4C[C@@H](O)[C@@H](O)[C@@H](O)[C@]4(C)[C@H]3CC[C@]12C [integristerone A]
EC50 [5]: ~8 µM
EC50 ([6]; FIG. 14A/14B, read-out: EC50): ~10 µM

CC(C)=CC[C@@H](O)[C@](C)(O)[C@H]1CC[C@@]2(O)C3=CC(=O)[C@@H]4C[C@@H](O)[C@@H](O)C[C@]4(C)[C@H]3CC[C@]12C [stachysterone C]
EC50 [5]: 1.47 µM
EC50 ([6]; EC50, FIG. 14A/14B): 0.044 µM

C[C@H](CO)CC[C@@H](O)[C@](C)(O)[C@H]1CC[C@@]2(O)C3=CC(=O)[C@@H]4C[C@@H](O)[C@@H](O)C[C@]4(C)[C@H]3CC[C@]12C [(25S)-inokosterone]
EC50 [5]: ~10 µM
EC50 ([6]; FIG. 14A/14B, read-out: EC50): ~4 µM

CC(CC(O)C(C)(O)C1CCC2(O)C3=CC(=O)C4CC(O)C(O)CC4(C)C3CCC12C)C(C)(C)O (centres unmarked) [makisterone A]
EC50 [5]: ~20 µM
EC50 ([6]; FIG. 14A/14B, read-out: EC50): 3.33 µM

CCCCCC(=O)OC1CC2(C)C(C(C)(O)C(O)CCC(C)(C)O)CCC2(O)C2=CC(=O)C3CC(O)C(O)CC3(C)C21 (centres unmarked) [turkesterone-11 a -hexanoate]
EC50 [5]: > 33 µM
EC50 ([6]; EC50, FIG. 14A/14B): ~12 µM

CC(=O)O[C@H](CCC(C)(C)O)[C@](C)(O)[C@H]1CC[C@@]2(O)C3=CC(=O)[C@@H]4C[C@@H](O)[C@@H](O)C[C@]4(C)[C@H]3CC[C@]12C [Compound 20-hydroxyecdysone-22-acetate]
EC50 [5]: ~2 µM
EC50 ([6]; FIG. 14A/14B, read-out: EC50): ~2 µM

CC1(C)OC(=O)C=C1CC(O)C(C)(O)C1CCC2(O)C3=CC(=O)C4CC(O)C(O)CC4(C)C3CCC12C (centres unmarked) [carthamosterone]
EC50 [5]: > 33 µM
EC50 ([6]; FIG. 14A/14B, read-out: EC50): ~15 µM

CC(C)(O)CC[C@@H](O)[C@](C)(O)[C@H]1CC[C@@]2(O)C3=CC(=O)[C@@H]4C[C@@H](O)[C@@H](O)C[C@]4(C)[C@H]3[C@H](O)C[C@]12C [turkesterone]
EC50 [5]: > 33 µM
EC50 ([6]; EC50, FIG. 14A/14B): 3.37 µM

CCC(=O)OC1CC2(C)C(C(C)(O)C(O)CCC(C)(C)O)CCC2(O)C2=CC(=O)C3CC(O)C(O)CC3(C)C21 (centres unmarked) [turkesterone-11 a -propionate]
EC50 [5]: > 33 µM
EC50 ([6]; EC50, FIG. 14A/14B): ~15 µM
